Measured values from patent US6579859B1 (priority 2002, dated 2003).
Several values for one entry are separate records, joined by “and”; a condition that tells them apart may be missing. Equal values may be shown once.

Key:
Type in all cases: cell-based
[1] = system: Tetrahymena (Trophozoite); assay: Tetrahymena toxicity test (minimal lethal concentration); settings: lowest concentration at which all Tetrahymena were dead in all replicate wells; replicate tests
Procedure: Tetrahymena cells from a commercial source were grown in PCB broth in a tissue culture flask. The cells were removed from the broth via centrifuge and suspended in Osterhout-tris buffer at a concentration of no greater than 60 cells per 10 micro liters. A standard 96 well test plate comprising successive 50% dilutions of this cellular solution per row was prepared. Chemicals to be tested were added to 3 adjacent wells. Organism viability was tested via observation through an inverted microscope at time zero and every 24 hours thereafter. Tetrahymena were judged viable if they were motile or had active contractile vacuoles. All organisms in a well had to be dead to have a negative reading. A positive reading indicated all or some viable orgasms in a well. The minimal lethal concentration (MLC) of the test materials to Tetrahymena was the lowest toxicant concentration in which all Tetrahymena were dead in all replicate wells.

Acanthamoeba (Cyst) = assay: Acanthamoeba cyst toxicity test (minimal lethal concentration); settings: 24 hours exposure at 30° C.; no trophozoites after 6 days; replicate tests
Procedure: E. coli (ATCC#25922) were grown in Difaco Bacto nutrient agar and killed via UV light for use as nutrient for the Acanthamoeba cysts. The killed E. coli were placed on a non-nutrient agar plate. 1-2 drops of washed Acanthamoeba (from Tennessee Technological University) from a 2-3 day old plate were placed on the plate and incubated for 2-3 days at 30° C. A biofilm was prepared by placing approximately 9 milliliters of the active E. coli culture in sterile coplin jars containing 4 cover slips and incubating over night. The cover slips were rinsed in Osterhout-tris buffer and placed on 2-3 day old Acanthamoeba trophozoite plates and incubated for 7 days. In 7 days, the trophozoites will exhaust the E. coli nutrients and form cysts. The cover slips were soaked in approximately 9 milliliters of Osterhout-tris buffer and the cover slips placed in coplin jars. 50 ppm dilutions of the biocides to be tested were added to the coplin jars containing the cover slips with cysts and the coplin jars were incubated at 30° C. for 24 hours.
After 24 hours, the test solutions were removed and the cover slips soaked in Osterhout-tris buffer for 30 minutes. The cover slips were placed on non-nutrient agar plates with live E. coli. The plates were observed using an inverted microscope every day for 6 days to see if trophozoites were present. If trophozoites appeared, the test was positive. […]

Acanthamoeba Trophozoite = assay: Acanthamoeba trophozoite toxicity test (minimal lethal concentration); settings: 24 hours at 30°; all organisms dead in all replicate wells; replicate tests
Procedure: E. coli (ATCC #25922) grown in Difco Bacto nutrient agar and killed via UV light were used as nutrient for the Acanthamoeba. The killed E. coli were placed on a non-nutrient agar plate. 1-2 drops of washed Acanthamoeba Trophozoite (from Tennessee Technological University) were placed on the plate and incubated for 2-3 days at 30° C. An inoculum was prepared by placing about 2 ml of Osterhout-tris buffer onto the 2-3 day old plates. A sterile loop was used to dislodge the Trophozoites from the agar surface. The liquid was transferred to a sterile tube and diluted 1:10. 10 micro liters were placed on a slide and counted to confirm about 90 Acanthamoeba per 10 micro liters for the test. This solution was placed in a standard 96 well test plate with successive 50% dilutions per row. A 400 ppm solution of toxicants in Osterhout-tris buffer was prepared. Toxicants were added to 3 adjacent wells for testing. To avoid cross contamination, a well was skipped between each 3 replicate wells in every row and every other row skipped on the plate. The plate was incubated at 30° for 24 hours. An inverted microscope was used to observe the organisms in the wells. Cytoplasm will move in live amoeba and/or the contractile vacuoles will remain active. All organisms had to be dead in a well to have a negative reading. […]

Row | Structure (SMILES) | Minimal Lethal Concentration, Tetrahymena (Trophozoite) [1] | Minimal Lethal Concentration, Acanthamoeba (Cyst) (Acanthamoeba (Cyst)) | Minimal Lethal Concentration, Acanthanoeba (Trophozoite) (Acanthamoeba Trophozoite)
1 | CCCCCCCCCCCCCC[P+](CCCC)(CCCC)CCCC.[Cl-] [TBTDPC, Tri-n-butyl-tetradecylphosphonium chloride] | 2.5 µg/mL | 25 μg/ml (4×) and 40 μg/ml | 2.5 µg/mL
2 | OC[P+](CO)(CO)CO.[Cl-] [THPS, Tetra kis hydroxymethyl phosphonium chloride, reference compound] | 28 µg/mL | >50 µg/mL | 56 µg/mL
